This passage reports IC50 results from patent publication US10889555B2, “Sulfonamide compound or salt thereof” (Taiho Pharmaceutical Co., Ltd., priority 2016, dated 2021).

pIC50: −log10 of the molar value.

In the first assay the test system is HCC 1806 cells. Briefly: Cell proliferation inhibitory effect on human breast cancer cell line (crystal violet, 72 hours). To be noted: Homo sapiens, HCC1806, 72 h, read-out: Cell growth suppression IC50. In kind it is cell-based. The procedure: Human derived breast cancer cell line HCC 1806 cells were daily passaged at a cell density not exceeding 80% in ATCC recommended Roswell Park Memorial Institute medium (RPMI-1640) containing 10% fetal bovine serum (FBS). In order to start the test of cell proliferation inhibitory activity, HCC 1806 cells were suspended in the above medium, after seeing at 180 μL in each well of a 96-well flat bottom plate so that the number of cells per well was 2,000, the cells were cultured at 37° C. for 1 day in an incubator containing 5% carbon dioxide gas. On the next day, the test compound was dissolved in DMSO, and 20 μL of a drug additive solution diluted serially with distilled water to 10 times of the final concentration was added to each well of the culture plate of the cells, and the cells were cultured at 37° C. for 72 hours in an incubator containing 5% carbon dioxide gas. After culturing for 72 hours, 20 μL of glutaraldehyde was added to each well and allowed to stand for 30 minutes, then the plate was washed 10 times with water and was dried. 100 μL of a stain solution (0.05% crystal violet in a 20% methanol solution) was added to each well and allowed to stand for 30 minutes, then the plate was washed 10 times with water and was dried. 100 μL of an extract solution (0.1 N NaH2PO4: 100% ethanol=1:1) was added to each well and mixed, and the mixture was measured at a wavelength of 540 nm using a plate reader (MTP-450 manufactured by Corona Electric Co., Ltd.). The growth inhibition rate was calculated from the following formula, and the concentration (IC50 (μM)) of a test compound inhibiting 50% was determined. Growth inhibition rate (%)={(C−B)−(T−B)}/(C−B)×100
T: Absorbance of well to which test compound was added
C: Absorbance of wells to which no test compound was added
B: Absorbance of wells to which no cell suspension was added
As a reminder, the pIC50 is the negative decadic logarithm of the IC50, by convention in mol/L. For the compound `C[C@H](c1c(F)ccc2ccccc12)[C@H](NS(=O)(=O)c1ccc(Cl)c2c1OCCC2F)c1n[nH]c(=O)o1` (mixture of isomers) [Example 292, 5-chloro-4-fluoro-N-((1S,2R)-2-(2-fluoronaphthalen-1-yl)-1-(5-oxo-4,5-dihydro-1,3,4-oxadiazol-2-yl)propyl)chroman-8-sulfonamide], the pIC50 was 6.12.

Consider `Cc1c(Cl)ccc(F)c1[C@@H](C)[C@H](NS(=O)(=O)c1ccc(Cl)c2c1OCCC2(C)N)c1n[nH]c(=O)o1` (mixture of isomers) [Example 328, 4-amino-5-chloro-N-((1S,2R)-2-(3-chloro-6-fluoro-2-methylphenyl)-1-(5-oxo-4,5-dihydro-1,3,4-oxadiazol-2-yl)propyl)-4-methylchroman-8-sulfonamide], for which the negative logarithm of the IC50 (pIC50) was 6.39. For `Cc1ccc(F)c([C@@H](C)[C@H](NS(=O)(=O)c2ccc(Cl)c3c2OCCC3(O)C(F)(F)F)c2n[nH]c(=O)o2)c1C` (single isomer, unassigned) [Example 220A], the pIC50 is 6.43.

For `Cc1ccc(F)c([C@@H](C)[C@H](NS(=O)(=O)c2ccc(F)c3c2OCCC3(C)O)c2n[nH]c(=O)o2)c1C` (single isomer, unassigned) [Example 224A], the pIC50 was 7.00. With `Cc1ccc(F)c([C@@H](C)[C@H](NS(=O)(=O)c2ccc(F)c3c2OCCC3(C)O)c2n[nH]c(=O)o2)c1C` (single isomer, unassigned) [Example 224B], the pIC50 was 6.11. Consider `Cc1c(Br)ccc(F)c1[C@@H](C)[C@H](NS(=O)(=O)c1ccc(F)c2c1OCCC2(C)O)c1n[nH]c(=O)o1` (single isomer, unassigned) [Example 227A], for which the pIC50 was 6.72.

On to `Cc1c(Cl)ccc(F)c1[C@@H](C)[C@H](NS(=O)(=O)c1ccc(F)c2c1OCCC2(C)O)c1n[nH]c(=O)o1` (single isomer, unassigned) [Example 229A], for which the pIC50 is 6.51. With `C[C@H](c1c(F)ccc2ccccc12)[C@H](NS(=O)(=O)c1ccc(Cl)c2c1OCCC2O)c1n[nH]c(=O)o1` (single isomer, unassigned) [Example 234A], the pIC50 is 6.24. The same measure, in the same setting: with `Cc1c(Cl)ccc(F)c1[C@@H](C)[C@H](NS(=O)(=O)c1ccc(Cl)c2c1OCCC2O)c1n[nH]c(=O)o1` (single isomer, unassigned) [Example 238A] the figure was 6.36; with `CCc1ccc(F)c([C@@H](C)[C@H](NS(=O)(=O)c2ccc(Cl)c3c2OCCC3O)c2n[nH]c(=O)o2)c1C` (single isomer, unassigned) [Example 239A], 6.14; with `Cc1ccc(F)c([C@@H](C)[C@H](NS(=O)(=O)c2ccc(C(F)(F)F)c3c2OCCC3O)c2n[nH]c(=O)o2)c1C` (single isomer, unassigned) [Example 244A], 6.14. As for `Cc1c(Cl)ccc(F)c1[C@@H](C)[C@H](NS(=O)(=O)c1ccc(Cl)c2c1OCCC2(C)N)c1n[nH]c(=O)o1` (single isomer, unassigned) [Example 330A], the pIC50 is 6.62. `C[C@H](c1c(F)ccc2ccccc12)[C@H](NS(=O)(=O)c1ccc(Cl)cc1C(N)=O)c1n[nH]c(=O)o1` [Example 6, 5-chloro-2-(N-((1S,2R)-2-(2-fluoronaphthalen-1-yl)-1-(5-oxo-4,5-dihydro-1,3,4-oxadiazol-2-yl)propyl)sulfamoyl)benzamide]: the pIC50 was 6.54.

Take `Cc1ccc(S(=O)(=O)N[C@H](c2n[nH]c(=O)o2)[C@H](C)c2c(F)ccc(C)c2C)c(C(N)=O)c1` [Example 10, 2-(N-((1S,2R)-2-(3-6-fluoro-2,3-dimethylphenyl)-1-(5-oxo-4,5-dihydro-1,3,4-oxadiazol-2-yl)propyl)sulfamoyl)-5-methylbenzamide]: the negative logarithm of the IC50 (pIC50) was 6.25. Regarding `Cc1ccc(S(=O)(=O)N[C@H](c2n[nH]c(=O)o2)[C@H](C)c2c(F)ccc3ccccc23)c(C(N)=O)c1` [Example 12, 2-(N-((1S,2R)-2-(2-Fluoronaphthalen-1-yl)-1-(5-oxo-4,5-dihydro-1,3,4-oxadiazol-2-yl)propyl)sulfamoyl)-5-methylbenzamide], the pIC50 was 6.30.

Still in this assay, the particulars now being: read-out: Cell growth suppression IC50.
Regarding `[2H]C([2H])([2H])C1(O)CCOc2c(S(=O)(=O)N[C@H](c3n[nH]c(=O)o3)[C@H](C)c3c(F)ccc(C)c3C)ccc(Cl)c21` (single isomer, unassigned) [Example 200B], the pIC50 is 6.34. For the compound `Cc1ccc(F)c([C@@H](C)[C@H](NS(=O)(=O)c2ccc(Cl)c3c2OCCC3(C)O)c2n[nH]c(=O)o2)c1C` (single isomer, unassigned) [Example 207A], the pIC50 was 7.15. `Cc1ccc(F)c([C@@H](C)[C@H](NS(=O)(=O)c2ccc(Cl)c3c2OCCC3(C)O)c2n[nH]c(=O)o2)c1C` (single isomer, unassigned) [Example 207B]: the pIC50 is 6.60. On the same count and under the same terms, with `COc1c(S(=O)(=O)N[C@H](c2n[nH]c(=O)o2)[C@H](C)c2c(F)ccc(C)c2C)ccc(Cl)c1C(C)O` (single isomer, unassigned) [Example 208A] the figure was 6.48. The same measure, in the same setting: the figure for `COc1c(S(=O)(=O)N[C@H](c2n[nH]c(=O)o2)[C@H](C)c2c(F)ccc(C)c2C)ccc(Cl)c1C(C)O` (single isomer, unassigned) [Example 208B] is 7.30; for `Cc1c(Cl)ccc(F)c1[C@@H](C)[C@H](NS(=O)(=O)c1ccc(Cl)c2c1OCCC2(C)O)c1n[nH]c(=O)o1` (single isomer, unassigned) [Example 209B] it is 6.09; for `Cc1ccc(F)c([C@@H](C)[C@H](NS(=O)(=O)c2ccc(Cl)c3c2OCCC3(O)C(F)(F)F)c2n[nH]c(=O)o2)c1C` (single isomer, unassigned) [Example 220B] it is 6.30. As to `Cc1c(Br)ccc(F)c1[C@@H](C)[C@H](NS(=O)(=O)c1ccc(Cl)c2c1OCCC2(C)O)c1n[nH]c(=O)o1` (single isomer, unassigned) [Example 222B], the pIC50 is 6.17.

Regarding `[2H]C([2H])([2H])C1(O)CCOc2c(S(=O)(=O)N[C@H](c3n[nH]c(=O)o3)[C@H](C)c3c(F)ccc(Br)c3C)ccc(Cl)c21` (single isomer, unassigned) [Example 226A], the negative logarithm of the IC50 (pIC50) is 7.10. Regarding `[2H]C([2H])([2H])C1(O)CCOc2c(S(=O)(=O)N[C@H](c3n[nH]c(=O)o3)[C@H](C)c3c(F)ccc(Br)c3C)ccc(Cl)c21` (single isomer, unassigned) [Example 226B], the pIC50 was 6.52. As to `Cc1ccc(F)c([C@@H](C)[C@H](NS(=O)(=O)c2ccc(F)c3c2OCCC3O)c2n[nH]c(=O)o2)c1C` (single isomer, unassigned) [Example 230A], the pIC50 is 6.54. For `Cc1ccc(F)c([C@@H](C)[C@H](NS(=O)(=O)c2ccc(F)c3c2OCCC3O)c2n[nH]c(=O)o2)c1C` (single isomer, unassigned) [Example 230B], the pIC50 was 6.11. For the compound `Cc1ccc(F)c([C@@H](C)[C@H](NS(=O)(=O)c2ccc(Cl)c3c2OCCC3O)c2n[nH]c(=O)o2)c1C` (single isomer, unassigned) [Example 235B], the pIC50 is 6.40. For `Cc1c(Br)ccc(F)c1[C@@H](C)[C@H](NS(=O)(=O)c1ccc(Cl)c2c1OCCC2O)c1n[nH]c(=O)o1` (single isomer, unassigned) [Example 243A], the pIC50 is 6.54. In the case of `Cc1c(Br)ccc(F)c1[C@@H](C)[C@H](NS(=O)(=O)c1ccc(Cl)c2c1OCCC2O)c1n[nH]c(=O)o1` (single isomer, unassigned) [Example 243B], the pIC50 is 6.15.
